Consider 18 molecules from US20250270209A1 (INTERLINE THERAPEUTICS, INC., priority 2022, published 2025).

Experiment [1] concerns the target T1, wild type LRRK2 overexpressed in recombinant HEK-293T cells (Homo sapiens, UniProt Q5S007).
T1 construct: host or cells: HEK293T (transient transfection with pCMV-LRRK2 WT plasmid)
Description: pS935 LRRK2 Cell Assay (HTRF, phospho-LRRK2 Ser935). The experiment is classed as cell-based. The following applies: LRRK2 Inhibition, Table 8, 2 hours compound incubation. The procedure, abridged: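 Phospho-Ser935 LRRK2 measured by two-antibody HTRF (Eu-cryptate donor, d2 acceptor; 665/615 nm ratio) after overnight detection at 23° C. Before lysis, transiently LRRK2-transfected HEK-293T cells were exposed 2 h at 37° C to a 9-point, 3-fold series from 10 μM, with DMSO at 0.2%.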

Experiment [2] concerns the target LRRK2 wild type enzyme (Homo sapiens, UniProt Q5S007). The experiment can be described thus: Biochemical Assay: LRRK2 TR-FRET (LanthaScreen) kinase assay with LRRKtide substrate. The following applies: LRRK2 Inhibition, Table 8. The gist of the method: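 TR-FRET detection (Tb-labelled phospho-LRRKtide antibody, EDTA stop, 30 min) followed a 120 min, 23 °C reaction of 3 nM wild-type human LRRK2 with LRRKtide (400 nM) and ATP (25 μM) in Tris pH 8.0. Compounds: 11-point 3-fold series from 10 μM, 15 min enzyme preincubation.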

Structures are written as SMILES.

T1 sequence (Q5S007 whole entry): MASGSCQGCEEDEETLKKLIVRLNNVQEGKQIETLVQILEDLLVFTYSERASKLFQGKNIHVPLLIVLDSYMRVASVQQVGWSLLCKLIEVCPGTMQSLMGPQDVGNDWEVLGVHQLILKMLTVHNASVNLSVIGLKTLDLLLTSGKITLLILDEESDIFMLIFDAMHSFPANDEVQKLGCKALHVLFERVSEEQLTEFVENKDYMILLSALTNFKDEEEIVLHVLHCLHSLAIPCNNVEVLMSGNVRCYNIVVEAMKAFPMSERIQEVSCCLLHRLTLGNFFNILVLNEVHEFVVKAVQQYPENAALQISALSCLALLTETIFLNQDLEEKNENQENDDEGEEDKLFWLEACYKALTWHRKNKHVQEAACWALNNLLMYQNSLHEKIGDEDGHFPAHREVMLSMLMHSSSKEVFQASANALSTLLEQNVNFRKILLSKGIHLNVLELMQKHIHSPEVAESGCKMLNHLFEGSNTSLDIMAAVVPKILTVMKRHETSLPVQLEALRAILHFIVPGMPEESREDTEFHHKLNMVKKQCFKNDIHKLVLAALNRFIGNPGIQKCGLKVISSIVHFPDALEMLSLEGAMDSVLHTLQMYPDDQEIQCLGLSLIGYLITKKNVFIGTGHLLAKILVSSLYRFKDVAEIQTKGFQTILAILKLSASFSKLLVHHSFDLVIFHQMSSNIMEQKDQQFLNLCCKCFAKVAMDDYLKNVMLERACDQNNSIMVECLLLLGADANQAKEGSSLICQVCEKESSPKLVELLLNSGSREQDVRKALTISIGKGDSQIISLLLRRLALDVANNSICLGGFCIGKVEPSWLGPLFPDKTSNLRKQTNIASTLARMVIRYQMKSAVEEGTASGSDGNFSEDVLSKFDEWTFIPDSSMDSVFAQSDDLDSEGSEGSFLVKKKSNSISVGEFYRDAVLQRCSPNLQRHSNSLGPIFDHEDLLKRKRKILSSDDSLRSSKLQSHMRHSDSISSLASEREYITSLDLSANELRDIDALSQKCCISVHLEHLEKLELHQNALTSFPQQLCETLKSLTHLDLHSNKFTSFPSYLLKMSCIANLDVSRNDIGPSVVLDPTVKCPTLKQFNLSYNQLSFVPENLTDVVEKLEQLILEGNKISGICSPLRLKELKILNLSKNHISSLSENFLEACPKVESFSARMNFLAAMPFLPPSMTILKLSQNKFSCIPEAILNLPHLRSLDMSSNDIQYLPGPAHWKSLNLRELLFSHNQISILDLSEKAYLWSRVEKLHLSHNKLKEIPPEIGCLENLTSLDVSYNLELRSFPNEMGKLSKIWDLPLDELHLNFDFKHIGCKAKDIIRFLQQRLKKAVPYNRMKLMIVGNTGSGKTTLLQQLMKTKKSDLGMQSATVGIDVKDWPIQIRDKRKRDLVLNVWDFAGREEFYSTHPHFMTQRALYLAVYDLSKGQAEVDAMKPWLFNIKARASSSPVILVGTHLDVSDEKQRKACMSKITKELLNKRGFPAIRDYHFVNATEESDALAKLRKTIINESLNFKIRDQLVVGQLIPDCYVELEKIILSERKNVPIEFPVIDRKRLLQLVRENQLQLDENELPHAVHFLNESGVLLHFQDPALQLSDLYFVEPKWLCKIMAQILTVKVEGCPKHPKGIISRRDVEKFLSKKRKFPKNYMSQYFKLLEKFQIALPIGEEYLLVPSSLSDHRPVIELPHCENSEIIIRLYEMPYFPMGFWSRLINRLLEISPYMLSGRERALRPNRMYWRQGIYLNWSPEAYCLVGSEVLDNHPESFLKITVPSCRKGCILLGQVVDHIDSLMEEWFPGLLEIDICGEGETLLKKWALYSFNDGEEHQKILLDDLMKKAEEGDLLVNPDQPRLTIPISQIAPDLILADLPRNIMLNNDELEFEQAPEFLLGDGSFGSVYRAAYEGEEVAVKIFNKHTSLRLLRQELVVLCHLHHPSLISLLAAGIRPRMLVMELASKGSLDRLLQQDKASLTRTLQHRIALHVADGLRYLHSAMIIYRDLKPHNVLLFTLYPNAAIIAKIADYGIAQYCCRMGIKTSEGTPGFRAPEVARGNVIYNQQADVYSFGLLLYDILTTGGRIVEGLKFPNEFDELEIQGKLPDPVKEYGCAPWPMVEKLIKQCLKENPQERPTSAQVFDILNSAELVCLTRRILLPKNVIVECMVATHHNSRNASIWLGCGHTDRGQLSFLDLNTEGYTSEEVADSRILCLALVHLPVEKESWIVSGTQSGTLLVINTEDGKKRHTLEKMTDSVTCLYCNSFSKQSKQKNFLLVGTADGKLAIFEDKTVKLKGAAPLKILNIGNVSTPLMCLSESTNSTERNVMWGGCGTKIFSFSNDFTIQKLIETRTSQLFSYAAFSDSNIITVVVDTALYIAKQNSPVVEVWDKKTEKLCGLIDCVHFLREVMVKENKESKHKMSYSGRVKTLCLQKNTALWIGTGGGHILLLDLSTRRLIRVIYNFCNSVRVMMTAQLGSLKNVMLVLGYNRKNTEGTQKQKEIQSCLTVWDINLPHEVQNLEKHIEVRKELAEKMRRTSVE
Chain of LRRK2 wild type enzyme (Q5S007 whole entry): as above

Turning to `CCc1ncc(NC(=O)Cc2nc3cnc4ccc(C#N)cc4c3n2[C@@H]2CCO[C@H](C)C2)cn1` [Compound 262, N-(2-ethyl-5-pyrimidinyl){3-[(2R,4R)-2-methyltetrahydro-2H-pyran-4-yl]-12-cyano-3,5,8-triazatricyclo[7.4.0.0^2,6]trideca-1,4,6,8,10,12-hexaen-4-yl}acetamide], the IC50 is 18.2 nM in experiment [1] and 0.467 nM in experiment [2].

`C[C@@H]1C[C@H](n2c(CC(=O)Nc3cnc(C(F)F)nc3)nc3cnc4ccc(C#N)cc4c32)CCO1` [Compound 254, N-[2-(difluoromethyl)-5-pyrimidinyl]{3-[(2R,4R)-2-methyltetrahydro-2H-pyran-4-yl]-12-cyano-3,5,8-triazatricyclo[7.4.0.0^2,6]trideca-1(9),2(6),4,7,10,12-hexaen-4-yl}acetamide]: the values for the IC50 in experiment [1] and in experiment [2] were 27.3 nM and 0.546 nM, respectively.

In the case of `C[C@@H]1C[C@H](n2c(CC(=O)NC[C@H]3CCCO3)nc3cnc4ccc(C#N)cc4c32)CCO1` [Compound 153, 2-{8-cyano-1-[(2R,4R)-2-methyloxan-4-yl]-1H-imidazo[4,5-c]quinolin-2-yl}-N-{[(2R)-oxolan-2-yl]methyl} acetamide], the IC50 in experiment [1] is 21.3 nM; in experiment [2] it was 0.514 nM.

With `C[C@@H]1C[C@H](n2c(CC(=O)NCc3cccc(C(F)(F)F)n3)nc3cnc4ccc(C#N)cc4c32)CCO1` [Compound 370, N-{[6-(trifluoromethyl)-2-pyridyl]methyl}{3-[(2R,4R)-2-methyltetrahydro-2H-pyran-4-yl]-12-cyano-3,5,8-triazatricyclo[7.4.0.0^2,6]trideca-1(9),2(6),4,7,10,12-hexaen-4-yl}acetamide], the IC50 in experiment [1] is 2.74 nM; in experiment [2] it was 0.295 nM.

For `C[C@@H]1C[C@H](n2c(CC(=O)Nc3ccnnc3)nc3cnc4ccc(C#N)cc4c32)CCO1` [Compound 268, N-4-pyridazinyl{3-[(2R,4R)-2-methyltetrahydro-2H-pyran-4-yl]-12-cyano-3,5,8-triazatricyclo[7.4.0.0^2,6]trideca-1,4,6,8,10,12-hexaen-4-yl}acetamide], the values for the IC50 in experiment [1] and in experiment [2] were 109 nM and 0.461 nM, respectively.

As to `C[C@@H]1C[C@H](n2c(CC3CN(S(C)(=O)=O)C3)nc3cnc4ccc(C#N)cc4c32)CCO1` [Compound 65, 2-[(1-methanesulfonylazetidin-3-yl)methyl]-1-[(2R,4R)-2-methyloxan-4-yl]-1H-imidazo[4,5-c]quinoline-8-carbonitrile], the IC50 in experiment [1] was 525 nM; in experiment [2] it was 5.03 nM.

For `N#Cc1ccc2ncc3nc(CC(=O)NCC4CC4)n(C4CCOCC4)c3c2c1` [Compound 343, N-cyclopropylmethyl{12-cyano-3-(tetrahydro-2H-pyran-4-yl)-3,5,8-triazatricyclo[7.4.0.0^2,6]trideca-1,4,6,8,10,12-hexaen-4-yl}acetamide], the IC50 in experiment [1] amounted to 135 nM; in experiment [2], 2.81 nM.

As for `C[C@@H]1C[C@H](n2c(C3CC(=O)N(Cc4cccnc4)C3)nc3cnc4ccc(C#N)cc4c32)CCO1` (mixture of isomers) [Compound 57, 1-[(2R,4R)-2-methyloxan-4-yl]-2-[(3RS)-5-oxo-1-[(pyridin-3-yl)methyl]pyrrolidin-3-yl]-1H-imidazo[4,5-c]quinoline-8-carbonitrile], the IC50 in experiment [1] worked out at 216 nM; in experiment [2], 0.958 nM.

Turning to `C[C@@H]1C[C@H](n2c([C@H]3CNC(=O)C3)nc3cnc4ccc(C#N)cc4c32)CCO1` [Compound 72, 1-[(2R,4R)-2-methyloxan-4-yl]-2-[(3R)-5-oxopyrrolidin-3-yl]-1H-imidazo[4,5-c]quinoline-8-carbonitrile], the concentration for half-maximal inhibition (IC50) in experiment [1] worked out at 3600 nM; in experiment [2] it was 1.86 nM.

In the case of `Cc1oncc1CNC(=O)Cc1nc2cnc3ccc(C#N)cc3c2n1[C@@H]1CCO[C@H](C)C1` [Compound 179, 2-(8-cyano-1-((2R,4R)-2-methyltetrahydro-2H-pyran-4-yl)-1H-imidazo[4,5-c]quinolin-2-yl)-N-((5-methylisoxazol-4-yl)methyl)acetamide], the IC50 amounted to 17.1 nM in experiment [1] and 0.337 nM in experiment [2].

In the case of `C[C@@H]1C[C@H](n2c(CC(=O)NC3CC3)nc3cnc4ccc(C(F)(F)F)cc4c32)CCO1` [Compound 327, N-cyclopropyl{3-[(2R,4R)-2-methyltetrahydro-2H-pyran-4-yl]-12-(trifluoromethyl)-3,5,8-triazatricyclo[7.4.0.0^2,6]trideca-1,4,6,8,10,12-hexaen-4-yl}acetamide], the IC50 in experiment [1] came to 43.1 nM; in experiment [2], 1.41 nM.

In the case of `C[C@@H]1C[C@H](n2c(C3CC(=O)N(Cc4cccnc4)C3)nc3cnc4ccc(C#N)cc4c32)CCO1` (single isomer, unassigned) [Compound 30, 1-[(2R,4R)-2-methyloxan-4-yl]-2-[(3R*)-5-oxo-1-[(pyridin-3-yl)methyl]pyrrolidin-3-yl]-1H-imidazo[4,5-c]quinoline-8-carbonitrile], the IC50 was determined as 41.3 nM in experiment [1] and 0.567 nM in experiment [2].

As for `C[C@@H]1C[C@H](n2c(CC(=O)Nc3cnn(C)c3)nc3cnc4ccc(C#N)cc4c32)CCO1` [Compound 88, 2-{8-cyano-1-[(2R,4R)-2-methyloxan-4-yl]-1H-imidazo[4,5-c]quinolin-2-yl}-N-(1-methyl-1H-pyrazol-4-yl)acetamide], the IC50 in experiment [1] is 24.4 nM; in experiment [2], 0.457 nM.

For the molecule `C[C@@H]1C[C@H](n2c(C3CCN(C(=O)C4CC4)CC3)nc3cnc4ccc(C#N)cc4c32)CCO1` [Compound 27, 2-(1-cyclopropanecarbonylpiperidin-4-yl)-1-[(2R,4R)-2-methyloxan-4-yl]-1H-imidazo[4,5-c]quinoline-8-carbonitrile], the figures for the IC50 in experiment [1] and in experiment [2] were 115 nM and 1.49 nM, respectively.

Consider `C[C@@H]1C[C@H](n2c(CC(=O)Nc3ccn(C4COC4)n3)nc3cnc4ccc(C#N)cc4c32)CCO1` [Compound 346, N-[1-(3-oxetanyl)-3-pyrazolyl]{2-[(2R,4R)-2-methyltetrahydro-2H-pyran-4-yl]-12-cyano-3,5,8-triazatricyclo[7.4.0.0^2,6]trideca-1(9),2(6),4,7,10,12-hexaen-4-yl}acetamide], for which the half-inhibitory concentration (IC50) is 28.5 nM in experiment [1] and 0.555 nM in experiment [2].

Consider `C[C@@H]1C[C@H](n2c(CC(=O)Nc3ccncc3)nc3cnc4ccc(C#N)cc4c32)CCO1` [Compound 326, N-4-pyridyl{3-[(2R,4R)-2-methyltetrahydro-2H-pyran-4-yl]-12-cyano-3,5,8-triazatricyclo[7.4.0.0^2,6]trideca-1(9),2(6),4,7,10,12-hexaen-4-yl}acetamide], for which the IC50 in experiment [1] was 4.86 nM; in experiment [2] it was 0.492 nM.

For the molecule `COc1cc(C)ncc1NC(=O)Cc1nc2cnc3ccc(C#N)cc3c2n1[C@@H]1CCO[C@H](C)C1` [Compound 226, N-(4-methoxy-6-methyl-3-pyridyl){3-[(2R,4R)-2-methyltetrahydro-2H-pyran-4-yl]-12-cyano-3,5,8-triazatricyclo[7.4.0.0^2,6]trideca-1,4,6,8,10,12-hexaen-4-yl}acetamide], the IC50 in experiment [1] was found to be 5.44 nM; in experiment [2] it was 0.461 nM.

For the molecule `C[C@@H]1C[C@H](n2c(CC(=O)Nc3cncnc3)nc3cnc4ccc(Cl)cc4c32)CCO1` [Compound 331, N-5-pyrimidinyl{3-[(2R,4R)-2-methyltetrahydro-2H-pyran-4-yl]-12-chloro-3,5,8-triazatricyclo[7.4.0.0^2,6]trideca-1(9),2(6),4,7,10,12-hexaen-4-yl}acetamide], the IC50 in experiment [1] was 5.73 nM; in experiment [2], 0.608 nM.
